Results published in patent US11891386B2, “Indole compounds and their use” (ARIAGEN, INC., priority 2017, dated 2024).

System: EMT-6 syngeneic mouse tumor model (breast cancer)
Assay: Anti-tumor activity, EMT-6 syngeneic mouse tumor model
Type: in vivo
Conditions: EMT6, 648 h, Study 2, EMT-6, 160 mpk, D27, read-out: TGI (tumor growth inhibition)

COC(=O)c1csc(C(=O)c2c[nH]c3ccccc23)n1 [ARI-001, ITE]
inhibition in vivo at 160 mg/kg: 75.1%
